Data as given in patent publication US6511453B2, “Device for controlled anaesthesia, analgesia and/or sedation” (priority 1997, dated 2003).

Legend:
[1] = Loading of emulsions with xenon (xenon uptake, stability); assay type: physicochemical; conditions: 10% by weight fatty emulsion saturated with xenon
Procedure: The loading capacity of the abovementioned perfluorocarbon preparation is considerable. Xenon loads of e.g. 1 to 10 ml/ml have been achieved by the simplest means. For example, these preparations can be loaded with inert gas simply by having the gas passed through them.
Thus, even by the simplest means, xenon can be dissolved or dispersed in concentrations of 0.2 to 10 ml or more per ml of fatty emulsion (concentrations relate to standard conditions, i.e. 20° C. and normal pressure). The xenon concentration depends on a large number of factors, especially the concentration of the fat. As a rule the preparations will be “loaded” with xenon up to the saturation limit. However, it is also possible for very small concentrations to be present, provided, for example, that a pharmacological activity can still be observed on intravenous administration. In the case of a 10% fatty emulsion, it is easily possible to reach xenon concentrations of 0.3 to 2 ml of xenon per ml of fatty emulsion. It is of course also possible to reach higher values, e.g. 3, 4, 5, 6 or 7 ml of xenon per ml of fatty emulsion. These fatty emulsions are sufficiently stable, at least in gas-tight containers, for the xenon not to be released as a gas over conventional storage periods. […]

[2] = test system: patient; assay: Intravenous infusion of xenon-containing emulsion in a patient; conditions: in vivo
Procedure: To achieve a subanaesthetic action, the xenon load in the medicinal preparation need only be about 0.2 to 0.3 ml of xenon per ml of emulsion. This means that an analgesic and/or sedative action is assured for preparations with a xenon content of at least 0.2 ml/ml emulsion. An anti-inflammatory action is already observed at 0.1 ml/ml emulsion. […] When working with a highly laden perfluorocarbon emulsion containing 2 to 4 ml of xenon per ml of emulsion, for example, 20 ml of this emulsion are infused over 30 sec, for example, in order to induce anaesthesia. An infusion rate of at least 7.5 ml/min is sufficient to maintain the anaesthesia. A total of 470 ml of emulsion would thus be used for a 1-hour operation. With a xenon content of 3 ml of xenon per ml of emulsion, this corresponds to a xenon volume of 1410 ml, i.e. a fraction of the xenon consumed in inhalation anaesthesia (based on a body weight of 85 kg, this would be a consumption of 16.6 ml per kg in one hour).

## [Xe] [xenon, Xenon]
[1]
  Xenon content at saturation: about 0.3 ml of xenon per ml of emulsion
[2]
  Xenon content at which an anti-inflammatory action is observed: 0.1 ml/ml emulsion
  Xenon content that assures an analgesic and/or sedative action: at least 0.2 ml/ml emulsion
